Like-named read-outs stand apart in the source and are kept apart here.

This experiment has as its target T1, human TLR7 (Homo sapiens, UniProt Q9NYK1).
T1 sequence (Q9NYK1 27-1049): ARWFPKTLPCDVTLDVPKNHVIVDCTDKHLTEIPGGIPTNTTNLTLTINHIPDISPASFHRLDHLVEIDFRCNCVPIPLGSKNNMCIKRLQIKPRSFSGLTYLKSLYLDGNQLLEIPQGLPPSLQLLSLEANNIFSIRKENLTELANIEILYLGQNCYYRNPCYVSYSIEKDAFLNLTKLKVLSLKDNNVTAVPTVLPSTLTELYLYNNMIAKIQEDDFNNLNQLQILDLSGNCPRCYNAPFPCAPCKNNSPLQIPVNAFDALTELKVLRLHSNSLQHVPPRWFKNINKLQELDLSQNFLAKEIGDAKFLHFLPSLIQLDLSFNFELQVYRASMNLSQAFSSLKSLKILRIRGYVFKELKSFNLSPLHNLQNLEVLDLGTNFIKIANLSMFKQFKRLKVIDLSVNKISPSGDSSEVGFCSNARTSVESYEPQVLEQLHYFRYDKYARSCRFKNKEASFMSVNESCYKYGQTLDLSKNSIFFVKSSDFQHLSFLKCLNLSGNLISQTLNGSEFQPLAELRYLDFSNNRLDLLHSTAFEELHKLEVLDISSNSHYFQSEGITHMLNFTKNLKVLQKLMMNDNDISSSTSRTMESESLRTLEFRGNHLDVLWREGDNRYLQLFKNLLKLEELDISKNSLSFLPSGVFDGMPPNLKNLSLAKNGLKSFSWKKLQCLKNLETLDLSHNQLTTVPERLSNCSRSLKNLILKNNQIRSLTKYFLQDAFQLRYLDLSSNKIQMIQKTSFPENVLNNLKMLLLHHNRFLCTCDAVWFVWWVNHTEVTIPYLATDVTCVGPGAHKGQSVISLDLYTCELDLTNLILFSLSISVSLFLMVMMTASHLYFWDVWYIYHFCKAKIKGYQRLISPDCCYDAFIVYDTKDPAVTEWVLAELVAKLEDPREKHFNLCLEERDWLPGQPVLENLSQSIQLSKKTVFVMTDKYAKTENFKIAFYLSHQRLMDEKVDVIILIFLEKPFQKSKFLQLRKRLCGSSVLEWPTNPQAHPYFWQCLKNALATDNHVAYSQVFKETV
Nature of the experiment: HEK293-Blue-hTLR-7 cells assay (SEAP reporter, NF-κB activation). The experiment is classed as cell-based. As to conditions: for EC50: HEK293-Blue-hTLR-7 cells, 20 hrs incubation, SEAP reporter; for Ratio (EC50(prodrug)/EC50(active form)): calculated ratio of prodrug EC50 to EC50 of corresponding active form. An excerpt:
HEK293-Blue-hTLR-7 Cells Assay
A stable HEK293-Blue-hTLR-7 cell line was purchased from InvivoGen (Cat. #: hkb-ht1r7, San Diego, Calif., USA). These cells were designed for studying the stimulation of human TLR7 by monitoring the activation of NF-κB. A SEAP (secreted embryonic alkaline phosphatase) reporter gene was placed under the control of the IFN-β minimal promoter fused to five NF-κB and AP-1-binding sites. The SEAP was induced by activating NF-κB and AP-1 via stimulating HEK-Blue hTLR7 cells with TLR7 ligands. Therefore the reporter expression was regulated by the NF-κB promoter upon stimulation of human TLR7 for 20 hrs. The cell culture supernatant SEAP reporter activity was determined using QUANTI-Blue™ kit (Cat. #: rep-qb1, Invivogen, San Diego, Calif., USA) at a wavelength of 640 nm, a detection medium that turns purple or blue in the presence of alkaline phosphatase.
HEK293-Blue-hTLR7 cells were incubated at a density of 250,000˜450,000 cells/mL in a volume of 180 μL in a 96-well plate in Dulbecco's Modified Eagle's medium (DMEM) containing 4.5 g/L glucose, 50 U/mL penicillin, […], […], 2 mM L-glutamine, 10% (V/V) heat-inactivated fetal bovine serum for 24 hrs. Then the HEK293-Blue-hTLR-7 cells were incubated with addition of 20 μL test compound in a serial dilution in the presence of final DMSO at 1% and perform incubation under 37° C. in a CO2 incubator for 20 hrs. Then 20 μL of the supernatant from each well was incubated with 180 μL Quanti-blue substrate solution at 37° C. for 2 hrs and the absorbance was read at 620˜655 nm using a spectrophotometer. The signalling pathway that TLR7 activation leads to downstream NF-κB activation has been widely accepted, and therefore similar reporter assay was also widely used for evaluating TLR7 agonist (Tsuneyasu Kaisho and Takashi Tanaka, Trends in Immunology, Volume 29, Issue 7, July 2008, […]; Hiroaki Hemmi et al, Nature Immunology 3, 196-200 (2002)).
The Compounds and Examples of the present invention were tested in HEK293-hTLR-7 assay for their TLR7 agonism activity as described herein and results are listed in Table 1. […] The calculated ratio of EC50(prodrug)/EC50(active form) were within the range from 27.7 to about 8233.

Where [1] appears, read: corresponding active form, read-out: HEK293-hTLR-7 EC50 (Active form).
Setting [2] is: prodrug, read-out: HEK293-hTLR-7 EC50 (Prodrug).

For the compound `CCCS(=O)(=O)c1nc(N)c2[nH]c(=O)n(Cc3ccccc3)c2n1` [Compound 1a, 6-amino-9-benzyl-2-propylsulfonyl-7H-purin-8-one], the EC50 under setting [1] was 0.075 µM.

Turning to `CCS(=O)(=O)c1nc(N)c2[nH]c(=O)n(Cc3ccccc3)c2n1` [Compound 3a, 6-amino-9-benzyl-2-ethylsulfonyl-7H-purin-8-one], the EC50 under setting [1] came out at 0.17 µM.

On to `CCCS(=O)(=O)c1nc(N)c2[nH]c(=O)n(Cc3ccc(Cl)cc3)c2n1` [Compound 6a, 6-amino-9-[(4-chlorophenyl)methyl]-2-propylsulfonyl-7H-purin-8-one], for which the EC50 under setting [1] was 0.021 µM.

As to `CCCS(=O)(=O)c1nc(N)c2[nH]c(=O)n(Cc3ccc(C)cc3)c2n1` [Compound 12a, 6-amino-2-(propylsulfonyl)-9-(p-tolylmethyl)-7H-purin-8-one], under setting [1], the EC50 came to 0.065 µM.

Consider `CCS(=O)(=O)c1nc(N)c2[nH]c(=O)n(Cc3ccc(C)cc3)c2n1` [Compound 14a, 6-amino-2-ethylsulfonyl-9-(p-tolylmethyl)-7H-purin-8-one], for which the EC50 under setting [1] is 0.065 µM.

Take `CCS(=O)(=O)c1nc(N)c2[nH]c(=O)n(Cc3ccc(F)cc3)c2n1` [Compound 18a, 6-Amino-2-ethylsulfonyl-9-[(4-fluorophenyl)methyl]-7H-purin-8-one]: the EC50 under setting [1] was found to be 0.06 µM.

For `CCS(=O)(=O)c1nc(N)c2[nH]c(=O)n(Cc3ccc(F)cc3)c2n1` [Compound 20a, 6-Amino-2-ethylsulfonyl-9-[(4-fluorophenyl)methyl]-7H-purin-8-one], the EC50 under setting [1] is 0.008 µM.

As to `CCS(=O)(=O)c1nc(N)c2[nH]c(=O)n(Cc3ccc(Br)cc3)c2n1` [Compound 22a, 6-Amino-2-ethylsulfonyl-9-[(4-bromophenyl)methyl]-7H-purin-8-one], the EC50 under setting [1] amounted to 0.023 µM.

Consider `CCCS(=O)(=O)c1nc(N)c2c(n1)n(Cc1ccccc1)c(=O)n2C(=O)N(C)CC` [Example 1, 6-Amino-9-benzyl-N-ethyl-N-methyl-8-oxo-2-propylsulfonyl-purine-7-carboxamide], for which the “Ratio (EC50(prodrug)/EC50(active form))” value is 145.3. The EC50 under setting [2] amounted to 10.9 µM.

Regarding `CCCN(C)C(=O)n1c(=O)n(Cc2ccccc2)c2nc(S(=O)(=O)CCC)nc(N)c21` [Example 2, 6-Amino-9-benzyl-N-methyl-8-oxo-N-propyl-2-propylsulfonyl-purine-7-carboxamide], the “Ratio (EC50(prodrug)/EC50(active form))” value was 86.7. The concentration giving a half-maximal response (EC50) under setting [2] stood at 6.5 µM.

As to `CCN(C)C(=O)n1c(=O)n(Cc2ccccc2)c2nc(S(=O)(=O)CC)nc(N)c21` [Example 3, 6-Amino-9-benzyl-N-ethyl-2-ethylsulfonyl-N-methyl-8-oxo-purine-7-carboxamide], the “Ratio (EC50(prodrug)/EC50(active form))” value is reported as 614.1. Moreover, the EC50 under setting [2] was 104 µM.

Consider `CCCN(C)C(=O)n1c(=O)n(Cc2ccccc2)c2nc(S(=O)(=O)CC)nc(N)c21` [Example 4, 6-Amino-9-benzyl-2-ethylsulfonyl-N-methyl-8-oxo-N-propyl-purine-7-carboxamide], for which the “Ratio (EC50(prodrug)/EC50(active form))” value is recorded as 514.7. Moreover, the concentration for a half-maximal effect (EC50) under setting [2] was determined as 87.5 µM.

Regarding `CCS(=O)(=O)c1nc(N)c2c(n1)n(Cc1ccccc1)c(=O)n2C(=O)N1CCCC1` [Example 5, 6-Amino-9-benzyl-2-ethylsulfonyl-7-(pyrrolidine-1-carbonyl)purin-8-one], the “Ratio (EC50(prodrug)/EC50(active form))” value is 174.7. For the same compound, under setting [2], the EC50 turned out to be 29.7 µM.

As for `CCCN(C)C(=O)n1c(=O)n(Cc2ccc(Cl)cc2)c2nc(S(=O)(=O)CCC)nc(N)c21` [Example 6, 6-Amino-9-[(4-chlorophenyl)methyl]-N-methyl-8-oxo-N-propyl-2-propylsulfonyl-purine-7-carboxamide], the “Ratio (EC50(prodrug)/EC50(active form))” value is recorded as 123.8. Further, the EC50 under setting [2] worked out at 2.6 µM.

Consider `CCCS(=O)(=O)c1nc(N)c2c(n1)n(Cc1ccc(Cl)cc1)c(=O)n2C(=O)N(C)CC` [Example 7, 6-Amino-9-[(4-chlorophenyl)methyl]-N-ethyl-N-methyl-8-oxo-2-propylsulfonyl-purine-7-carboxamide], for which the “Ratio (EC50(prodrug)/EC50(active form))” value is given as 152.4. In addition, the EC50 under setting [2] was 3.2 µM.

For `CCN(C)C(=O)n1c(=O)n(Cc2ccc(Cl)cc2)c2nc(S(=O)(=O)CC)nc(N)c21` [Example 9, 6-Amino-9-[(4-chlorophenyl)methyl]-N-ethyl-2-ethylsulfonyl-N-methyl-8-oxo-purine-7-carboxamide], the “Ratio (EC50(prodrug)/EC50(active form))” value is listed as 219.3. Further, the EC50 under setting [2] is 18.2 µM.

For `CCS(=O)(=O)c1nc(N)c2c(n1)n(Cc1ccc(Cl)cc1)c(=O)n2C(=O)N(C)C` [Example 10, 6-Amino-9-[(4-chlorophenyl)methyl]-2-ethylsulfonyl-N,N-dimethyl-8-oxo-purine-7-carboxamide], the “Ratio (EC50(prodrug)/EC50(active form))” value was 27.7. Moreover, under setting [2], the EC50 amounted to 2.3 µM.

Take `CCS(=O)(=O)c1nc(N)c2c(n1)n(Cc1ccc(Cl)cc1)c(=O)n2C(=O)N(C)CCOC` [Example 11, 6-Amino-9-[(4-chlorophenyl)methyl]-2-ethylsulfonyl-N-(2-methoxyethyl)-N-methyl-8-oxo-purine-7-carboxamide]: the “Ratio (EC50(prodrug)/EC50(active form))” value was 121.7. Besides, the EC50 under setting [2] is 10.1 µM.

As for `CCCN(C)C(=O)n1c(=O)n(Cc2ccc(C)cc2)c2nc(S(=O)(=O)CCC)nc(N)c21` [Example 12, 6-Amino-N-methyl-8-oxo-N-propyl-2-propylsulfonyl-9-(p-tolylmethyl)purine-7-carboxamide], the “Ratio (EC50(prodrug)/EC50(active form))” value is on record as 50.8. The EC50 under setting [2] was found to be 3.3 µM.

Regarding `CCCS(=O)(=O)c1nc(N)c2c(n1)n(Cc1ccc(C)cc1)c(=O)n2C(=O)N(C)CC` [Example 13, 6-Amino-N-ethyl-N-methyl-8-oxo-2-propylsulfonyl-9-(p-tolylmethyl)purine-7-carboxamide], the “Ratio (EC50(prodrug)/EC50(active form))” value was 147.7. In addition, the EC50 under setting [2] came to 9.6 µM.

In the case of `CCCN(C)C(=O)n1c(=O)n(Cc2ccc(C)cc2)c2nc(S(=O)(=O)CC)nc(N)c21` [Example 14, 6-Amino-2-ethylsulfonyl-N-methyl-8-oxo-N-propyl-9-(p-tolylmethyl)purine-7-carboxamide], the “Ratio (EC50(prodrug)/EC50(active form))” value is on record as 1053. Under setting [2], the EC50 was determined as 68.5 µM.

With `CCN(CC)C(=O)n1c(=O)n(Cc2ccc(C)cc2)c2nc(S(=O)(=O)CC)nc(N)c21` [Example 15, 6-Amino-N,N-diethyl-2-ethylsulfonyl-8-oxo-9-(p-tolylmethyl)purine-7-carboxamide], the “Ratio (EC50(prodrug)/EC50(active form))” value is 86.2. Also, the EC50 under setting [2] came out at 5.6 µM.

On to `CCN(C)C(=O)n1c(=O)n(Cc2ccc(C)cc2)c2nc(S(=O)(=O)CC)nc(N)c21` [Example 16, 6-Amino-N-ethyl-2-ethylsulfonyl-N-methyl-8-oxo-9-(p-tolylmethyl)purine-7-carboxamide], for which the “Ratio (EC50(prodrug)/EC50(active form))” value is recorded as 445.9. Moreover, under setting [2], the EC50 stood at 43.9 µM.

These data come from patent US11220502B2, “Sulfone compounds and derivatives for the treatment and prophylaxis of virus infection” (Hoffmann-La Roche Inc., priority 2018, dated 2022).
